Values of other authors, collected in patent US20130109707A1, “FLUOROURACIL DERIVATIVES” (Concert Pharmaceuticals ,Inc., priority 2010, published 2013).

Conditions: patients treated with carmofur or with 5-fluorouracil; reported by Mixutani, Brain Nerve 2008

| SMILES | cases of leukoencephalopathy [%] |
| --- | --- |
| O=c1[nH]cc(F)c(=O)[nH]1 [5-fluorouracil] | 0.026 |
| CCCCCCNC(=O)n1cc(F)c(=O)[nH]c1=O [carmofur, 5-fluoro-N-hexyl-2,4-dioxo-pyrimidine-1-carboxamide] | 0.026 |
